Results reported in patent US20230002375A1, “HYDROPYRAZINO[1,2-B]ISOQUINOLINE COMPOUNDS FOR THE TREATMENT OF AUTOIMMUNE DISEASE” (Hoffmann-La Roche Inc., priority 2019, published 2023).

Experiments:
human TLR8 = biological target: T1, human TLR8 (Homo sapiens, UniProt Q9NR97); test: HEK293-Blue-hTLR-8 cells assay (SEAP reporter, R848 stimulation); assay type: cell-based; settings: HEK293-Blue-hTLR8 cells, R848, 20 hrs incubation; read-out: HEK/hTLR8 IC50
T1 sequence (Q9NR97 27-1041): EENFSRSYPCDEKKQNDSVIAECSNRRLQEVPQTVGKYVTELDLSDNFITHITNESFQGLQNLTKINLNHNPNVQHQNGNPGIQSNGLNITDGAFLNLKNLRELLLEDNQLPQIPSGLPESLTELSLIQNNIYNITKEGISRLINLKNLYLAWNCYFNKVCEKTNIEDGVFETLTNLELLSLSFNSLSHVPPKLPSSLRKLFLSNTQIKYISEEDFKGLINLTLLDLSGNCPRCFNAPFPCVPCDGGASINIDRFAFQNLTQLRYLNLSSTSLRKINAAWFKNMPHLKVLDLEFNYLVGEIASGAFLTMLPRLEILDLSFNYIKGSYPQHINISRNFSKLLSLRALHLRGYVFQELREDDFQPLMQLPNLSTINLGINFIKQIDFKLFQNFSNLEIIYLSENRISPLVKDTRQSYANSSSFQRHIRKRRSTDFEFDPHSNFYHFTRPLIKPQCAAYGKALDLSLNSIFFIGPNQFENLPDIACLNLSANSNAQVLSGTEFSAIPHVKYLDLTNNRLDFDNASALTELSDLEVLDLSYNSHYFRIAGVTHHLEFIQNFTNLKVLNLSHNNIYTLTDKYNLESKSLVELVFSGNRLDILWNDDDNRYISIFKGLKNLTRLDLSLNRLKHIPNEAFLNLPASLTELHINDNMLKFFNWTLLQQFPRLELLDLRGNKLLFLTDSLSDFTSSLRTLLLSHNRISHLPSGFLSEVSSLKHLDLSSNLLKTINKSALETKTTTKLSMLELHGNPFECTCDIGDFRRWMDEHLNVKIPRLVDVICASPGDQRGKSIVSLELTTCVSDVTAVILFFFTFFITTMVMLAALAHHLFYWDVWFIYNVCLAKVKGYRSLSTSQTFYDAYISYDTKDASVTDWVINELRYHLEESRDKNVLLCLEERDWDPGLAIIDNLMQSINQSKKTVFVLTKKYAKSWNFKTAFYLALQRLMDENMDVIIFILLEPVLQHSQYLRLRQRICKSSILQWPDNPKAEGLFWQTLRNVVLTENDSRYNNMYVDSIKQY
Protocol: The following tests were carried out in order to determine the activity of the compounds of formula (I), (Ia) or (Ib) in HEK293-Blue-hTLR-7/8/9 cells assay.
HEK293-Blue-hTLR-8 Cells Assay:
A stable HEK293-Blue-hTLR-8 cell line was purchased from InvivoGen (Cat.#: hkb-htlr8, San Diego, Calif., USA). These cells were originally designed for studying the stimulation of human TLR8 by monitoring the activation of NF-κB. A SEAP (secreted embryonic alkaline phosphatase) reporter gene was placed under the control of the IFN-β minimal promoter fused to five NF-κB and AP-1-binding sites. The SEAP was induced by activating NF-κB and AP-1 via stimulating HEK-Blue hTLR8 cells with TLR8 ligands. Therefore the reporter expression was declined by TLR8 antagonist under the stimulation of a ligand, such as R848, for incubation of 20 hrs. The cell culture supernatant SEAP reporter activity was determined using QUANTI-Blue™ kit (Cat.#: rep-qb1, Invivogen, San Diego, Ca, USA) at a wavelength of 640 nm, a detection medium that turns purple or blue in the presence of alkaline phosphatase.
HEK293-Blue-hTLR8 cells were incubated at a density of 250,000-450,000 cells/mL in a volume of 170 μL in a 96-well plate in Dulbecco's Modified Eagle's medium (DMEM) containing 4.5 g/L glucose, 50 U/mL penicillin, […], […], 2 mM L-glutamine, 10% (v/v) heat-inactivated fetal bovine serum with addition of 20 μL test compound in a serial dilution in the presence of final DMSO at 1% and 10 μL of 60 uM R848 in above DMEM, perform incubation under 37° C. in a CO2 incubator for 20 hrs. Then 20 μL of the supernatant from each well was incubated with 180 μL Quanti-blue substrate solution at 37° C. for 2 hrs and the absorbance was read at 620˜655 nm using a spectrophotometer. The signaling pathway that TLR8 activation leads to downstream NF-κB activation has been widely accepted, and therefore similar reporter assay was modified for evaluating TLR8 antagonist.

[1] = Human microsomal stability assay; assay type: in vitro ADME; settings: human liver microsomes, 1 μM test compound, 0.5 mg/mL protein, 37° C.; low <7.0, medium 7.0-16.2, high 16.2-23.2 mL/min/kg
Protocol: Human Microsomal Stability Assay
Human liver microsomes (Cat.NO.: 452117, Corning, USA) were preincubated with test compound for 10 minutes at 37° C. in 100 mM potassium phosphate buffer, pH 7.4. The reactions were initiated by adding NADPH regenerating system. The final incubation mixtures contained 1 μM test compound, 0.5 mg/mL liver microsomal protein, 1 mM MgCl2, 1 mM NADP, 1 unit/mL isocitric dehydrogenase and 6 mM isocitric acid in 100 mM potassium phosphate buffer, pH 7.4. After incubation times of 0, 3, 6, 9, 15 and 30 minutes at 37° C., 300 μL of cold ACN (including internal standard) was added to 100 μL incubation mixture to terminate the reaction. Following precipitation and centrifugation, 100 uL supernatant will be taken out and added 300 uL water. The amount of compound remaining in the samples was determined by LC-MS/MS. Controls of no NADPH regenerating system at zero and 30 minutes were also prepared and analyzed. The results were categorized as: low (<7.0 mL/min/kg), medium (7.0-16.2 mL/min/kg) and high (16.2-23.2 mL/min/kg).

For `C[C@@H]1CN(c2ccc(C#N)c3ncccc23)C[C@@H]2Cc3cc(N4CCN(C(=O)[C@]5(C)CCCN5)CC4)ccc3CN21` [Example 14, 5-[(4R,11aS)-4-methyl-9-[4-[(2S)-2-methylpyrrolidine-2-carbonyl]piperazin-1-yl]-1,3,4,6,11,11a-hexahydropyrazino[1,2-b]isoquinolin-2-yl]quinoline-8-carbonitrile], the IC50 (human TLR8) was 1.4 nM and the “CL(h)” value [1] was 8.7 mL/min/kg.
In the case of `C[C@@H]1CN(c2ccc(C#N)c3ncccc23)C[C@@H]2Cc3cc(N4CCN(C(=O)C(C)(C)N)CC4)ccc3CN21` [Example 13, 5-[(4R,11aS)-9-[4-(2-amino-2-methyl-propanoyl)piperazin-1-yl]-4-methyl-1,3,4,6,11,11a-hexahydropyrazino[1,2-b]isoquinolin-2-yl]quinoline-8-carbonitrile], the IC50 (human TLR8) is reported as 37.5 nM and the “CL(h)” value [1] is reported as 7.6 mL/min/kg.
